Experiments:
GFP reporter translation = experiment: WG IVTT activity assay, GFP reporter control; assay type: biochemical, wheat germ; conditions: negative control
From the text: A commercially available wheat germ lysate (WG) IVTT system was employed to assay translation inhibition. Translation activity was detected via a GFP reporter, and the assay was miniaturized to picoliter-scale microfluidic droplets (Figure 1A,B). […] PCSK9 and RPL27 were truncated to the first 33 and 32 amino acids, respectively (PCSK9[1:33] and RPL27[1:32]). The sequences contain distinct PF846 stall sites and were both fused to a GFP reporter. The GFP reporter and a frameshift mutant of PCSK9[1:33] (PCSK9-FS[1:33]), which mutates the nascent chain sequence while maintaining a nearly identical mRNA sequence, were included as negative controls.[13] […] Sequence sensitivity was further confirmed by an N-terminal deletion series of PCSK9[1:33]-GFP; deletion of N-terminal residues increasingly ablated PCSK9[1:33]-GFP translation sensitivity to PF846 (Figure 1D). The WG IVTT assay was miniaturized using a previously described microfluidic circuit modified for longer incubation times (Figure S1)[27] using PF846 as a positive control compound, and assay statistical quality was calculated (Z′=0.7) (Figure 1E). […] Assay statistical quality using PC-HygB positive control beads was similarly calculated (Z′ = 0.75, Figure 1H). […]
(§1) 440 progress was immediately monitored (λex = 480 nm, λem = 530 nm, 27 °C, 2 h). […]
(§2) 441 tive activity was calculated using the slope of fluorescence increase over time (at 15–30 […]

[1] = test system: PCSK9-FS[1:33]-GFP translation; experiment: WG IVTT microplate activity assay, PCSK9-FS[1:33]-GFP frameshift counter template; assay type: biochemical, wheat germ
From the text: (§3) A commercially available wheat germ lysate (WG) IVTT system was employed to assay translation inhibition. Translation activity was detected via a GFP reporter, and the assay was miniaturized to picoliter-scale microfluidic droplets (Figure 1A,B). […] PCSK9 and RPL27 were truncated to the first 33 and 32 amino acids, respectively (PCSK9[1:33] and RPL27[1:32]). The sequences contain distinct PF846 stall sites and were both fused to a GFP reporter. The GFP reporter and a frameshift mutant of PCSK9[1:33] (PCSK9-FS[1:33]), which mutates the nascent chain sequence while maintaining a nearly identical mRNA sequence, were included as negative controls.[13] […] Sequence sensitivity was further confirmed by an N-terminal deletion series of PCSK9[1:33]-GFP; deletion of N-terminal residues increasingly ablated PCSK9[1:33]-GFP translation sensitivity to PF846 (Figure 1D). The WG IVTT assay was miniaturized using a previously described microfluidic circuit modified for longer incubation times (Figure S1)[27] using PF846 as a positive control compound, and assay statistical quality was calculated (Z′=0.7) (Figure 1E). To confirm detection of translation inhibition from library beads, hygromycin B, a nonselective aminoglycoside translation inhibitor, was coupled to beads displaying a photocleavable linker (PC-HygB). UV irradiation releases hygromycin from the bead, allowing it to interact with the WG IVTT assay in the droplet. PC-HygB bead photocleavage supernatant inhibited PCSK9[1:33]-GFP translation both in a microplate assay and in microfluidic droplets (Figure 1F,G, S2). Assay statistical quality using PC-HygB positive control beads was similarly calculated (Z′ = 0.75, Figure 1H). […]
(§4) 436 Microplate IVTT Assays
(§5) 437 Wheat germ lysate IVTT plate assays were prepared as 5 µL reactions. Wheat germ lysate
(§6) 438 (3 µL) was added to test compound or vehicle control (1 µL) in a 384-well black microplate
(§7) 439 and the reaction was incubated (10 min, RT). Template (1 µL) was added and reaction
(§8) 440 progress was immediately monitored (λex = 480 nm, λem = 530 nm, 27 °C, 2 h). Rela-
(§9) 441 tive activity was calculated using the slope of fluorescence increase over time (at 15–30
(§10) 442 min post reaction initiation) for compound samples relative to that of the DMSO vehicle
443 control. All microplate experiments contained 25 ng/µL plasmid, except for assays with
445 respectively. HeLa lysate IVTT plate assays were prepared as 5.5 µL reactions. […]

[2] = test system: MST1[1:39]-GFP translation; parameters: method as in PMID 28323820; conditions: cited from earlier work
[3] = test system: PCSK9[1:33]-GFP translation; experiment: Wheat germ lysate (WG) IVTT microplate activity assay, PCSK9[1:33]-GFP template; assay type: biochemical; conditions: WG IVTT
From the text: as §3, §4, §5, §6, §7, §8, §9, §10
443 control. […]

[4] = test system: PCSK9 expression in HepG2 cells; experiment: HepG2 cellular assay, PCSK9 Western blot; assay type: cell-based; conditions: 16 h treatment, 5 or 50 µM, triplicate, normalized to DMSO
Description: Reaction buffer (1 µL) and template (0.5 µL) were added and reaction progress was
Relative activity was cal-
450 culated using the slope of fluorescence increase over time (15–30 min post reaction initia-
Gene blocks were purchased from IDT
Digestion with Sgf I and PmeI allowed for
Sequence-verified plasmids
460 were cloned into DH5α E. coli for standard large-scale DNA plasmid preparation.
Gene blocks were purchased
Digestion with NdeI and XhoI
470 (4.5 g/L high-glucose DMEM, 2 mM L-glutamine, 10% fetal bovine serum, 1% penicillin-
Cells were lysed (100 µL RIPA buffer,
Protein lysates (24 µg) were separated by denaturing polyacrylamide
480 PCSK9 rabbit monoclonal antibody, 5% BSA in PBS-T). The PCSK9 probed membrane
HRP-labeled bands were visualized
Figure S12. […] PCSK9 expression in HepG2 cells
treated 16 h with PF846 or screening hit 8 (5 or 50 µM) or vehicle control (DMSO) was analyzed in triplicate
(also on this page, place not known: S12894 GAPDH pro m DMSO 5 μM DMSO μM 5 μM 50 μM PCSK9 PF846 hit8 50)
(1 picture or pasted object on this page, not shown here)

[5] = test system: RPL27[1:32]-GFP translation; experiment: WG IVTT activity assay, RPL27[1:32]-GFP template; assay type: biochemical, wheat germ
From the text: A commercially available wheat germ lysate (WG) IVTT system was employed to assay translation inhibition. Translation activity was detected via a GFP reporter, and the assay was miniaturized to picoliter-scale microfluidic droplets (Figure 1A,B). […] PCSK9 and RPL27 were truncated to the first 33 and 32 amino acids, respectively (PCSK9[1:33] and RPL27[1:32]). The sequences contain distinct PF846 stall sites and were both fused to a GFP reporter. The GFP reporter and a frameshift mutant of PCSK9[1:33] (PCSK9-FS[1:33]), which mutates the nascent chain sequence while maintaining a nearly identical mRNA sequence, were included as negative controls.[13] […] The WG IVTT assay was miniaturized using a previously described microfluidic circuit modified for longer incubation times (Figure S1)[27] using PF846 as a positive control compound, and assay statistical quality was calculated (Z′=0.7) (Figure 1E). […] Assay statistical quality using PC-HygB positive control beads was similarly calculated (Z′ = 0.75, Figure 1H). […]
429 of encoding region identifiers was then determined using a UMI aggregation algorithm; […]
433 manually determined threshold (10) were discarded. […]
as §1, §2
Figure S11. […] Compound 8 (black) and PF846 (gray) were analyzed […]

[6] = test system: PCSK9[1:33]-GFP N-terminal deletions; experiment: WG IVTT end point assay of PCSK9[1:33]-GFP N-terminal deletions; assay type: biochemical, wheat germ; conditions: deletion of 15 or more N-terminal residues, 100 μM PF846
Description: (C) PF846 dose–response IVTT activity assays of PCSK9[1:33]-GFP, PCSK9-FS[1:33]-GFP, RPL27[1:32]-GFP, and the GFP reporters and (D) end point assays (100 μM PF846) of PCSK9[1:33]-GFP N-terminal deletions were conducted to determine sensitivity to PF846 in WG IVTT (% activity relative to DMSO control).

Compound: O=C(c1ccc(-n2nnc3cccnc32)cc1)N(c1ncccc1Cl)[C@@H]1CCCNC1 [PF846, PF-06446846, reference compound]
- activity on GFP reporter control translation (in words) (GFP reporter translation): did not affect the translation
- IC50 ([1]; PCSK9-FS[1:33]-GFP template, triplicate, undetectable IC50 marked >300): > 300 µM
- activity on PCSK9-FS[1:33]-GFP translation (in words) ([1]; frameshift control): did not affect the translation
- relative potency on MST1[1:39]-GFP versus PCSK9[1:33]-GFP and RPL27[1:32]-GFP translation (in words) [2]: more potently inhibits
- inhibition of PCSK9[1:33]-GFP translation (in words) [3]: inhibited the translation
- IC50 ([3]; PCSK9[1:33]-GFP template, triplicate, ± standard deviation of the mean): 3.9 ± 0.8 µM
- PCSK9 protein levels in HepG2 cells (in words) [4]: significantly reduced
- activity on RPL27[1:32]-GFP translation (in words) [5]: inhibited the translation
- PF846 activity on N-terminal deletions of PCSK9[1:33]-GFP (in words) [6]: completely eliminates PF846 activity

Source: publication PMC11503492, “Activity-Based DNA-Encoded Library Screening for Selective Inhibitors of Eukaryotic Translation” (ACS Central Science, 2024)
